Active and inactive are the calls of the source.
Experiments:
[1] = target: T1, Carboxy-terminal domain RNA polymerase II polypeptide A small phosphatase 1 (Homo sapiens, UniProt Q9GZU7); assay: inhibitors of CTDSP1, concentration-response testing, biochemical assay, absorbance-based, actives from ultra-high-throughput screening (AID 540297); type: functional
T1 sequence (Q9GZU7 whole entry): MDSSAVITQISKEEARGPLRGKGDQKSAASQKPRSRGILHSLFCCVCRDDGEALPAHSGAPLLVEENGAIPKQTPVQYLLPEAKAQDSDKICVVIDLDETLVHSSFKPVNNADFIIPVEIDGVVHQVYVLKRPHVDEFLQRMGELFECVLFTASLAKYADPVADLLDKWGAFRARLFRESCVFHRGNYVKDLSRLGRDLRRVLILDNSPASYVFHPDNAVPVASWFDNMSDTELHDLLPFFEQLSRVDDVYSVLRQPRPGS

ORF 73 = ORF 73 (Human herpesvirus 8, UniProt O40947); assay: inhibitors of C-LANA binding to LBS DNA, dose response, biochemical, fluorescence polarization, cherry-picked samples (AID 504725); set-up: species or system Human gammaherpesvirus 8;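 note: fluorescence polarization of a labeled DNA duplex reporting LANA DNA binding; potency is for inhibitors that block LANA binding to the DNA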
[2] = target: T2, Histone-lysine N-methyltransferase NSD2 (Homo sapiens, UniProt O96028); type: biochemical
T2 sequence (O96028 whole entry): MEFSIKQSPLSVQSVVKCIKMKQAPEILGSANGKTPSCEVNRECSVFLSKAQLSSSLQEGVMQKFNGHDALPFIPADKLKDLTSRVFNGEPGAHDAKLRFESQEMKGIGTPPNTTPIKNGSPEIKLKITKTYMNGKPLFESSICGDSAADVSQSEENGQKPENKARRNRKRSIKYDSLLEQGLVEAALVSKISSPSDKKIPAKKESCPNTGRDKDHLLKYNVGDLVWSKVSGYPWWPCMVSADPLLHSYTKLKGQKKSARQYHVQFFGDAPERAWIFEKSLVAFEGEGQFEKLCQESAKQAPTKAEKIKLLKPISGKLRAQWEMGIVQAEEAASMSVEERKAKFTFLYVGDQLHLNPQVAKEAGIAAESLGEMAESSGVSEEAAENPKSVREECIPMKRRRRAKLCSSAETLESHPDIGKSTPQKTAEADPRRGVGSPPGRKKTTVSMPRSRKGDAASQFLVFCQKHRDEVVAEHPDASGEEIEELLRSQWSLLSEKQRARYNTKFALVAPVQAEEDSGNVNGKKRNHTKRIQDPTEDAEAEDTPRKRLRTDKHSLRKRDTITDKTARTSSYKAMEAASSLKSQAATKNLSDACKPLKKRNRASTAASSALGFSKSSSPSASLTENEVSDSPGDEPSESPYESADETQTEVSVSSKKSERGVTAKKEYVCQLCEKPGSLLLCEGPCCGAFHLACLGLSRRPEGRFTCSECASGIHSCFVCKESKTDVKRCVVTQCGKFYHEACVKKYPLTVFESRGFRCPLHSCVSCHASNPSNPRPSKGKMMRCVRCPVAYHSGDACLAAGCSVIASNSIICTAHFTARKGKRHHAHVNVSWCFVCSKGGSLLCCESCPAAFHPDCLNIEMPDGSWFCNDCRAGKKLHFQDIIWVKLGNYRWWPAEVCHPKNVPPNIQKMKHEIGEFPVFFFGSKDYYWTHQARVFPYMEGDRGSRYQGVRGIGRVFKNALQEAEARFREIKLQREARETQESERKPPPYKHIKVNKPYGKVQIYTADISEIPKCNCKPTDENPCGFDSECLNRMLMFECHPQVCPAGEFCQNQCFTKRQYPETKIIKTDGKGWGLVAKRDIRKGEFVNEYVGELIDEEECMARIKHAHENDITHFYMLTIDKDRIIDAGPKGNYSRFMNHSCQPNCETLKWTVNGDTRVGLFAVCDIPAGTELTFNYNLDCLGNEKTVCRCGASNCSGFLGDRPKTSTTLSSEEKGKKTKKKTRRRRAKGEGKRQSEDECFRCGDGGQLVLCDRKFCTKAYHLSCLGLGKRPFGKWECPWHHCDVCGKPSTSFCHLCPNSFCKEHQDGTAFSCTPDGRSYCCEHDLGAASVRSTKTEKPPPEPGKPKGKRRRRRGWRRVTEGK

[3] = target: Acylamino-acid-releasing enzyme (Homo sapiens, UniProt P13798); assay: PME-1 inhibitor potency by in-gel ABPP, dose response, selectivity assay for PME-1 inhibitor project, cell lysate, mouse brain cytosol, FP-rhodamine, panel member APEH Assay Panel member description: Inhibition of N-acylaminoacyl-peptide hydrolase (APEH) (anti-target) (AID 2366)
[4] = target: Scavenger receptor class B member 1 (Mus musculus, UniProt Q61009); assay: inhibitors of SR-BI mediated HDL lipid uptake, dose response, ldlA[mSR-BI] cells, fluorescence, cherry pick (AID 493194); type: functional, cell-based;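 note: cellular uptake of fluorescent DiI-labeled HDL measured as cell fluorescence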
CAAX prenyl protease 2 = CAAX prenyl protease 2 (Homo sapiens, UniProt Q9Y256); assay: human Rce1 protease inhibitors, dose response, biochemical, yeast membranes, quenched-peptide fluorescence, cherry-pick (AID 588849)
Trypsin = Trypsin (Sus scrofa, UniProt P00761); assay: porcine trypsin inhibitors, dose response, selectivity assay for Rce1 protease inhibitor project, biochemical, quenched peptide fluorescence, cherry-pick (AID 488789)
[5] = inhibition of K1F phage lysis, E. coli UTI89, bacterial capsule biogenesis inhibitors, alamar blue (AID 488966); type: functional
[6] = target: T3, DNA repair and recombination protein RAD54-like (Homo sapiens, UniProt Q92698); assay: inhibitors of human RAD54 branch migration, confirmation, biochemical, fluorescence, cherry-picked samples, dose series (AID 651657); type: functional
T3 sequence (Q92698 whole entry): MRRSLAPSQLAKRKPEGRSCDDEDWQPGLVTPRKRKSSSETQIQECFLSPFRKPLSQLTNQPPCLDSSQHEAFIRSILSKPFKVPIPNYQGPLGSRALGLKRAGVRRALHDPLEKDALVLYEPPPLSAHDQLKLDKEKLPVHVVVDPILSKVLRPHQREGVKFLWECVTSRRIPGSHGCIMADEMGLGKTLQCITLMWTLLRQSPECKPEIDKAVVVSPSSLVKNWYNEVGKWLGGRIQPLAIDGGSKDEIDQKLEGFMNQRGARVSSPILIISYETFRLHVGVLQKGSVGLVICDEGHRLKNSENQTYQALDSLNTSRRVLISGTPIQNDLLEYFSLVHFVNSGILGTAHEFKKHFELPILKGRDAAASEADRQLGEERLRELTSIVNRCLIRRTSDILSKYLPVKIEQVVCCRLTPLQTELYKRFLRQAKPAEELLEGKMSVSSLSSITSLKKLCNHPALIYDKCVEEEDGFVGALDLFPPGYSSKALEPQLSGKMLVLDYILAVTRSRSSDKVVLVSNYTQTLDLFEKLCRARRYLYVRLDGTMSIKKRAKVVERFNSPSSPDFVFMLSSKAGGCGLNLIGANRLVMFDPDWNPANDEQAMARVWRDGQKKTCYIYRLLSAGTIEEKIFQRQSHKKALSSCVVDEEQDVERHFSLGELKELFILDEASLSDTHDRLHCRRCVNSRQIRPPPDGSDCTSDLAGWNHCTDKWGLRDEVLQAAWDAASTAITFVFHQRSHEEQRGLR

[7] = DNA binding of candidate compounds, dose response, artefact control for RAD54 inhibitor project, biochemical, fluorescence polarization, cherry-pick (AID 651673); type: functional
[8] = target: T4, DNA repair protein RAD52 homolog (Homo sapiens, UniProt P43351); type: functional, biochemical
T4 sequence (P43351 whole entry): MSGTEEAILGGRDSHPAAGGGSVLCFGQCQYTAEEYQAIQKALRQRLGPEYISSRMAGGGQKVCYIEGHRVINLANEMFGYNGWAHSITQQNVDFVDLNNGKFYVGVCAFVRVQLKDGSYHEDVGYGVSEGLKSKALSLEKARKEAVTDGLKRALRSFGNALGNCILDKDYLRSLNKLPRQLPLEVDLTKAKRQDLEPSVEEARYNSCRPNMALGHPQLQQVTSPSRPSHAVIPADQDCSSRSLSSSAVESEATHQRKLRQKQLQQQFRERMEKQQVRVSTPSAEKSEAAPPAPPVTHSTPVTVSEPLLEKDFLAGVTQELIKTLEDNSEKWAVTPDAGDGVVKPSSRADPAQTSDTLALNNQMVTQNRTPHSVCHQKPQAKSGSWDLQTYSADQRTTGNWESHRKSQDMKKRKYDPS

[9] = target: T5, Heat shock factor protein 1 (Mus musculus, UniProt P38532); assay: HSF1 potentiators in luciferase reporter cells, confirmation, cell-based, NIH3T3, luminescence, dose retest (AID 435004); type: functional;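 note: stress induced by proteasome inhibitor MG132 added 30 min after compound; luciferase reporter driven by HSF1 response element in NIH3T3 cells; actives raise luminescence as potentiators of the MG132 stress response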
T5 sequence (P38532 whole entry): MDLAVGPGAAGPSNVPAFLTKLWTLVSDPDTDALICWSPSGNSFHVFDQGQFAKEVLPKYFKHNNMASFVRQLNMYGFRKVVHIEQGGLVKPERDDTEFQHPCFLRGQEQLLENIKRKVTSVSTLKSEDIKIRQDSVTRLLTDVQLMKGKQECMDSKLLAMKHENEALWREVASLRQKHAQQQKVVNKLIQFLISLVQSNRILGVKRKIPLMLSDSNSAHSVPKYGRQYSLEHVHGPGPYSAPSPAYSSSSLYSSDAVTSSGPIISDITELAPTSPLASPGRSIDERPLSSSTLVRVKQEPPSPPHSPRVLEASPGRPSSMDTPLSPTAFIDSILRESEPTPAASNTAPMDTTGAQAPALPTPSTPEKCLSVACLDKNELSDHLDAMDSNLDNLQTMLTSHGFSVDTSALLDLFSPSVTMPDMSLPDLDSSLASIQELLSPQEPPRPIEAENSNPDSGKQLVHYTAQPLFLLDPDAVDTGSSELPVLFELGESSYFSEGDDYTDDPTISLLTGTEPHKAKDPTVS

[10] = cytotoxicity toward NIH3T3 fibroblasts, dose response, counter-screen, cell-based, ATP luminescence, mouse fibroblasts (AID 2010); type: functional;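 note: cells exposed to compound for about 90 hours before reading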
[11] = target: FAD-linked sulfhydryl oxidase ALR (Homo sapiens, UniProt P55789); assay: inhibitors of human ALR sulfhydryl oxidase, dose response, biochemical, H2O2 detection, luminescence, cherry-pick (AID 493248)
[12] = inhibitors of intracellular T. cruzi replication, confirmation, NIH3T3 host cells, beta-gal luminescence (AID 2044); type: functional, cell-based;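 note: intracellular parasites grown in NIH/3T3 mouse fibroblasts as host cells; luminescent beta-galactosidase reporter signal from transgenic T. cruzi replicating inside host cells; inhibitors lower the luminescence signal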
Vero = assay: cells; type: functional; conditions: Chlorocebus sabaeus
[13] = target: Protein phosphatase methylesterase 1 (Homo sapiens, UniProt Q9Y570); assay: PME-1 inhibitor potency by in-gel ABPP, dose response, selectivity assay for PME-1 inhibitor project, cell lysate, mouse brain cytosol, FP-rhodamine, panel member PME-1 Assay Panel member description: Inhibition of endogenously expressed PME-1 (AID 2366)
SUMO E1/E2 = SUMO E1/E2 (Homo sapiens, UniProt P63279+Q9UBE0+Q9UBT2); assay: SAR analysis of SUMOylation using HTRF in an in-Vitro dose response assay. [Related pubchem assays (depositor defined):AID2006, AID2011, AID2018, AID2069, AID2658]; type: functional
[14] = target: T6, Voltage-gated N-type calcium channel alpha-1B subunit/Amyloid beta A4 precursor protein-binding family A member 1 (Homo sapiens, UniProt Q00975+Q02410); assay: disruptors of Mint-PDZ/N-type channel peptide interaction – biochemical, HTRF, set 2, SAR follow-up (AID 434980); type: functional
[15] = target: T6, Voltage-gated N-type calcium channel alpha-1B subunit/Amyloid beta A4 precursor protein-binding family A member 1; assay: disruptors of Mint-PDZ/N-type channel peptide interaction – biochemical, HTRF, SAR follow-up (AID 2489); type: functional
X-box-binding protein 1 = X-box-binding protein 1 (Homo sapiens, UniProt P17861); type: functional, Cricetulus griseus;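 note: confirmatory dose-response counter-screen serving a CHOP assay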
[16] = target: Acyl-homoserine lactone acylase PvdQ (Pseudomonas aeruginosa (strain LESB58), UniProt Q9I194); assay: P. aeruginosa PvdQ acylase inhibitors, dose response, biochemical, fluorescence, plate reader and imaging, cherry-picks (AID 493231)
HeLa = assay: Cytotoxicity counterscreen assay for transcriptional activators of heat shock protein 70 (Hsp70). [Related pubchem assays: 1203, 1252 ]; type: functional; conditions: Homo sapiens
Beta-galactosidase = Beta-galactosidase (Escherichia coli, UniProt Q8VNN2); assay: beta-galactosidase enzyme inhibitors and activators, dose response, artefact control for CCR6 antagonist project, biochemical, E. coli enzyme, set 3 (AID 504712); type: functional
[17] = target: C-C chemokine receptor type 6 (Homo sapiens, UniProt P51684); assay: CCR6 receptor antagonists, dose response, cell-based, luminescent beta-arrestin readout (AID 504728); type: functional
[18] = cytotoxicity in BJeH fibroblasts, dose response, counter-screen for Ras selective lethality project, BJeH cells, dry powder (AID 493054); type: functional, cell-based

T6 sequence (Q00975 whole entry): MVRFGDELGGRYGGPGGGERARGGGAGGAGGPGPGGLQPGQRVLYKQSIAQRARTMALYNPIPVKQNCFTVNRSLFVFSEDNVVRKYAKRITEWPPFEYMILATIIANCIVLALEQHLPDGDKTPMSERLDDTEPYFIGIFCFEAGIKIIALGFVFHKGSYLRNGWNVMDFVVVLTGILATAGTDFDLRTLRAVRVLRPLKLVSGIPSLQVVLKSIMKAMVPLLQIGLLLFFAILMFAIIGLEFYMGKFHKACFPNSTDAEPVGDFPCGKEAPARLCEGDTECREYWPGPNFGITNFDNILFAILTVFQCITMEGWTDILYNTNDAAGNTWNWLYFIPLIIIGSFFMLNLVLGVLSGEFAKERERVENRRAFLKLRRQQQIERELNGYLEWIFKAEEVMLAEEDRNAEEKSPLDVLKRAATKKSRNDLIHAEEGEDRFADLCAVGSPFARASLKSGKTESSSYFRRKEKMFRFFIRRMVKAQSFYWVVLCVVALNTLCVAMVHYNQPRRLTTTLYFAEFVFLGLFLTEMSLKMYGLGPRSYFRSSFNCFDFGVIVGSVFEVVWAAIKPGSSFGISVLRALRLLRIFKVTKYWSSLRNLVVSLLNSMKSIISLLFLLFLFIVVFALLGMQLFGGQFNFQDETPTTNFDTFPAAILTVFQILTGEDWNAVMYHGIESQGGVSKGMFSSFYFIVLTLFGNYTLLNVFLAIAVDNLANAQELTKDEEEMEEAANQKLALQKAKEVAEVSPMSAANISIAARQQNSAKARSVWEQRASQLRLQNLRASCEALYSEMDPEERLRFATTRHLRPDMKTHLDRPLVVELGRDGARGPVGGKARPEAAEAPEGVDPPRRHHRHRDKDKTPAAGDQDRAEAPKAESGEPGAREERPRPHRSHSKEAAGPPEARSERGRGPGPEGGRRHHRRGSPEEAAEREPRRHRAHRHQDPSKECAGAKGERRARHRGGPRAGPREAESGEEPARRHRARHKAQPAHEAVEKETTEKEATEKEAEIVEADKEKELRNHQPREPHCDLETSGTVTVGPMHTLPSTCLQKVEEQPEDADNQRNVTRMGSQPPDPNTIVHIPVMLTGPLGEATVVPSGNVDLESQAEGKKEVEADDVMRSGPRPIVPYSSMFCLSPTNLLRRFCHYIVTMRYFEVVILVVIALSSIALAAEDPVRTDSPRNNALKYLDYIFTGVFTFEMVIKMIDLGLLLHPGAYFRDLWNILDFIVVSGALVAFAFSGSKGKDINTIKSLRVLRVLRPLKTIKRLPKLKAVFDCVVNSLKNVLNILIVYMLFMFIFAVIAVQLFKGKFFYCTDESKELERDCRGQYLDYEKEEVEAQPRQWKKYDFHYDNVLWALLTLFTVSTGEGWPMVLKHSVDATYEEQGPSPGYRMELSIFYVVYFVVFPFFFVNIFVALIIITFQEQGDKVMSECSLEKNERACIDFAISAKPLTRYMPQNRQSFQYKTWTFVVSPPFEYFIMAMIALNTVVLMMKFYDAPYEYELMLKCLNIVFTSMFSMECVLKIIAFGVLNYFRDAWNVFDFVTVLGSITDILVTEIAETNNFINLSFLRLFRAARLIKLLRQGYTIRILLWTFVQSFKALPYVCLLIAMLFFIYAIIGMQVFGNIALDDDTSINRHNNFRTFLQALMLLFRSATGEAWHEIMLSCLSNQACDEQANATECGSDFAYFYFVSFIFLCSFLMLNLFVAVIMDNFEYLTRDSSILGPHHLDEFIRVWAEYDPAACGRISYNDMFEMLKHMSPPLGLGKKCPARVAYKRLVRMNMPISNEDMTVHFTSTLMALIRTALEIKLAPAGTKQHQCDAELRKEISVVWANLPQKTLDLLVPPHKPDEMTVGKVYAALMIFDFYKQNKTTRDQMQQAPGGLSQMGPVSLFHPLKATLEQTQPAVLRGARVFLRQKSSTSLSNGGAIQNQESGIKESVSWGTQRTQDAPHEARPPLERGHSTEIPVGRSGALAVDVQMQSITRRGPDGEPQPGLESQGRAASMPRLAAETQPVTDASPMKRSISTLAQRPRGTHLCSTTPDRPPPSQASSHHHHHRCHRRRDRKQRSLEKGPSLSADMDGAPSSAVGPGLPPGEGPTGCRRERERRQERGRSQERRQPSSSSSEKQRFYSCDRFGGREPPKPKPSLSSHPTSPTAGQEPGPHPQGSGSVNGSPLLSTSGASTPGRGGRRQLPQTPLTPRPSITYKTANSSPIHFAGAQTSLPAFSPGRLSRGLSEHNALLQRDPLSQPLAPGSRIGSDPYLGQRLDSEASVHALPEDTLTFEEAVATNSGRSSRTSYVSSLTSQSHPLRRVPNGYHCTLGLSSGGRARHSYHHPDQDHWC
T6 sequence (Q02410 whole entry): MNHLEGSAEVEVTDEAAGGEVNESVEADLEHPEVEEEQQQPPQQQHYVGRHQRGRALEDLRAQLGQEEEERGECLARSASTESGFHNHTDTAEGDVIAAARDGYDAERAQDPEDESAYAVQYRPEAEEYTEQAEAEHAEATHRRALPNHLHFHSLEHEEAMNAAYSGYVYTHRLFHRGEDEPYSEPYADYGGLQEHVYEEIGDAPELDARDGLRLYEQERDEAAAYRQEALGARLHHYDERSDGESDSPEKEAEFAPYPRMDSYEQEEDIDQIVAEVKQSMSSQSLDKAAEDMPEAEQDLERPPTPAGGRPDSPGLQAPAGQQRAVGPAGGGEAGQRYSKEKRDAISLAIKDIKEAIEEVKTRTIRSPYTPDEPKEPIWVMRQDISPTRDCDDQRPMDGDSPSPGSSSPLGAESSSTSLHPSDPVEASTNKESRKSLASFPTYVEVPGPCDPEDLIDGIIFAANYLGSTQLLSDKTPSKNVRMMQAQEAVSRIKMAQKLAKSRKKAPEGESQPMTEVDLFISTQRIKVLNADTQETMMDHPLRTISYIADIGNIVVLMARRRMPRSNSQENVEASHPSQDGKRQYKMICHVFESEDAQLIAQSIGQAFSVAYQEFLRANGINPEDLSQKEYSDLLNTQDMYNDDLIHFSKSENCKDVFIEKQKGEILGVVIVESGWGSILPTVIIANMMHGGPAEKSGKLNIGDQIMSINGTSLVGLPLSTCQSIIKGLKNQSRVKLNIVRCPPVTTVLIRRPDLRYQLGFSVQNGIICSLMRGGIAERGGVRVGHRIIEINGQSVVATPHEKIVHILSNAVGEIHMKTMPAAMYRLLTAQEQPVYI
Chain of SUMO E1/E2 (Q9UBE0 whole entry): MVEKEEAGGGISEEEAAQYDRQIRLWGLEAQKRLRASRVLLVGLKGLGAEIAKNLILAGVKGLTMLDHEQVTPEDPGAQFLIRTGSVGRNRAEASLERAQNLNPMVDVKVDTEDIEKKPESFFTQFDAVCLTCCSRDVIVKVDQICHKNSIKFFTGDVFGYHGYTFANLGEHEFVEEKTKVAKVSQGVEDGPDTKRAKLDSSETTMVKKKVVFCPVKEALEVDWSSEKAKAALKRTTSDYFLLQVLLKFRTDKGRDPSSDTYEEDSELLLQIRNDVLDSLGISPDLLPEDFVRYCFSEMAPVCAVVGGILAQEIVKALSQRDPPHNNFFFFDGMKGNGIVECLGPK
Chain of SUMO E1/E2 (Q9UBT2 whole entry): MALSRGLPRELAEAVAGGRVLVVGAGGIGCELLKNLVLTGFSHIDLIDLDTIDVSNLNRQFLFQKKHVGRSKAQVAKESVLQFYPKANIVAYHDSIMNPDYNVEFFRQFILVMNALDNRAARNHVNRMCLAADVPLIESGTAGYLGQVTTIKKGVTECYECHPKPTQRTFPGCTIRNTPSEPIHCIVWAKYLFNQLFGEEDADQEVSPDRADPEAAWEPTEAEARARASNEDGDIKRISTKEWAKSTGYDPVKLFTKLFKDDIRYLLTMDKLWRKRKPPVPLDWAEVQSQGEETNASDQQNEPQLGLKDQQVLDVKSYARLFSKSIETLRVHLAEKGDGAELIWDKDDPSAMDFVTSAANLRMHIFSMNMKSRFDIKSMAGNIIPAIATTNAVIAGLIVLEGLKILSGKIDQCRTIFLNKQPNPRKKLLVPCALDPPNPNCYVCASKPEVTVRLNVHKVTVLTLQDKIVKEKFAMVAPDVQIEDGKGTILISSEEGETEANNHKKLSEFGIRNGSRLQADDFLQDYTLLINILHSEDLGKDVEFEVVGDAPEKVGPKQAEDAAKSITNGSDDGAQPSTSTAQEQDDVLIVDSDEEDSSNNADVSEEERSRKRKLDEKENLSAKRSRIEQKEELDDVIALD
Chain of SUMO E1/E2 (P63279 whole entry): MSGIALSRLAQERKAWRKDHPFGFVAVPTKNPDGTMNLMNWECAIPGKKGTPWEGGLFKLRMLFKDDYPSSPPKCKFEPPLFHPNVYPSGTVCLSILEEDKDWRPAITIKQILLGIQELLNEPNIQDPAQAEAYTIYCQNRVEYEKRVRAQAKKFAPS
Chain of C-C chemokine receptor type 6 (P51684 whole entry): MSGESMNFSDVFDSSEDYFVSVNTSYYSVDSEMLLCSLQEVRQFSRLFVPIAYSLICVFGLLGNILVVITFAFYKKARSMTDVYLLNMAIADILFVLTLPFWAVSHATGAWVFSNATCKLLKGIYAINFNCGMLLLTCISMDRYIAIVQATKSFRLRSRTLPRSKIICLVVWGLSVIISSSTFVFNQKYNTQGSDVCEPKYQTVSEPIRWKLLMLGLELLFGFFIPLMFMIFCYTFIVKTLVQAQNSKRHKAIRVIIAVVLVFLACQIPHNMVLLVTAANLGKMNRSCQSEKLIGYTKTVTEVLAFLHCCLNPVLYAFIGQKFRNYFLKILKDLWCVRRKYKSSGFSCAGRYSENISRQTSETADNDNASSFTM
Chain of X-box-binding protein 1 (P17861 whole entry): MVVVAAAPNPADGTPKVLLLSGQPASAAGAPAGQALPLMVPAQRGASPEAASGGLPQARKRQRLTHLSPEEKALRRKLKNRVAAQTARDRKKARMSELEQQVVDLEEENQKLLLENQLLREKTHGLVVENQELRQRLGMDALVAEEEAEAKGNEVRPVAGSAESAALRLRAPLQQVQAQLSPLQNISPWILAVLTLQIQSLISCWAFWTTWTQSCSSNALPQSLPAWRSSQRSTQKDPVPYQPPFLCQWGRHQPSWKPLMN

## O=C(O)COc1ccc2c(c1)O/C(=C\c1ccco1)C2=O
[1]
  IC50: 3.74 µM (active)
ORF 73
  AC50: 157 µM (active)
[2]
  AC50: > 20 µM (inactive)

## CS(=O)(=O)/C(C#N)=C/c1cccn1S(=O)(=O)c1ccccc1
[3]
  IC50: 20 µM (inactive)

## COc1cc(NC(=O)c2ccco2)c(OC)cc1NC(=O)Nc1ccc(Cl)cc1
[4]
  AC50: 6.53 µM (active)

## CCOP(=O)(c1ccccc1)c1nc(-c2ccccc2Cl)oc1N1CCCCC1 (stereo unspecified)
CAAX prenyl protease 2
  AC50: 5.21 µM (active)
Trypsin
  AC50: 4.67 µM (active)

## CN1CCN(c2ccc(Nc3ccnc4cc(Cl)ccc34)cc2)CC1
[5]
  IC50: > 300 µM (active)
[6]
  AC50: 6.94 µM (active)
[7]
  AC50: 56.1 µM (active)
[8]
  AC50: 2.47 µM (active)
[9]
  EC50: > 260 µM (inactive)
[10]
  EC50: 10.4 µM (active)
[11]
  AC50: 5.43 µM (active)
[12]
  EC50: 1.39 µM (active)
Vero
  CC50: 17.1 µM (active)

## CS(=O)(=O)/C(C#N)=C/c1cccn1S(=O)(=O)c1ccc([N+](=O)[O-])cc1[N+](=O)[O-]
[13]
  IC50: > 20 µM (inactive)

## COC(=O)c1ccc(CNC(=O)COC(=O)c2cc(-c3ccco3)nc3ccccc23)cc1
SUMO E1/E2
  IC50: 2.23 µM (active)
[14]
  IC50: 6.74 µM (active)
[15]
  IC50: 19.2 µM (active)

## O=C(CNc1cccc(C(F)(F)F)c1)N/N=C/c1cccc(Br)c1
X-box-binding protein 1
  Absolute IC50 (XBP1): 10 µM

## CCOC(=O)C1CCN(c2ccc([N+](=O)[O-])cc2)CC1
[16]
  AC50: 40.5 µM (active)
HeLa
  CC50: > 33 µM (not active)

## COC(=O)N/N=C/c1cc(N=Nc2ccccc2Cl)ccc1O
Beta-galactosidase
  IC50: > 66.6 µM (inactive)
[17]
  IC50: > 66.6 µM (inactive)

## COc1ccc(N(C(=O)CSc2ncccn2)C(C(=O)NCCc2ccccc2)c2cccs2)cc1Cl (stereo unspecified)
[18]
  AC50: > 381 µM (inactive)
